The results in this text go back to patent US5596009A, “Fused benzeneoxyacetic acid derivatives” (Ono Pharmaceutical Co., Ltd., priority 1991, dated 1997).

Each structure is given as a SMILES string.

For assay [1], the target named is T1, PGl2 receptor (Homo sapiens, UniProt P43119).
T1 construct: human blood platelet membrane fraction (0.3 mg protein) was added; from tissue; host or cells: human blood platelets (membrane fraction)
As to the kind of experiment: Inhibitory activity on binding of ^3 H-iloprost to PGl2 receptor on human blood platelet membrane fraction. The note with it: human blood platelet membrane fraction (0.3 mg protein), 10 nM [^3 H]-iloprost, pH 7.4, 24° C., 30 min; read-out: IC50 (inhibition of [^3 H]-iloprost binding to PGl2 receptor). Here is the method: i) Inhibitory activity on binding of ^3 H-iloprost to PGl2 receptor on human blood platelet membrane fraction
50 mM Tris-HCl buffer (pH 7.4) containing 15 mM MgCl2, 5 mM EDTA and 10 nM [^3 H]-iloprost were used as reaction medium. To 0.2 ml of the reaction medium, human blood platelet membrane fraction (0.3 mg protein) was added with or without a test compound. The mixture was incubated at 24° C. for 30 min. After incubation, 4 ml of ice-cold 10 mM Tris-HCl buffer (pH 7.4) was added to the reaction mixture, and filtered through Whatman GF/B glass fiber filter, and washed 4 times with 4 ml of ice-cold 10 mM Tris-HCl buffer (pH 7.4) to separate bound and free [^3 H]-iloprost. After washing, the filter was dried and radioactivity was counted. Non-specific binding was obtained by performing parallel binding experiments in the presence of 10 μM non-labelled iloprost. Specific binding was calculated by subtracting the non-specific binding from the total binding.
The inhibitory effect of test compound was calculated from the following equation.
The percentage of inhibition (%)=100-(B1 /B0 ×100)
B1 : specific [^3 H]-iloprost binding in presence of test compound
B0 : specific [^3 H]-iloprost binding in absence of test compound

Assay [2] deals with human blood platelet aggregation. As to the kind of experiment: Inhibitory effect on human blood platelet aggregation. Format: cell-based. The conditions noted are these: human platelet-rich plasma (5×10^5 platelets/mm^3), compound 1 min prior to ADP (4 μm); read-out: IC50 (inhibition of platelet aggregation). Here is the method: ii) Inhibitory effect on human blood platelet aggregation
Platelet-rich plasma (PRP) was prepared from human blood (5×10^5 platelets/mm^3), and a test compound was added to PRP 1 min prior to the addition of ADP (4 μm). The aggregation was monitored using a platelet aggregometer (NBS HEMA TRACER 601, Niko Bioscience, Japan).

T1 sequence (P43119 whole entry): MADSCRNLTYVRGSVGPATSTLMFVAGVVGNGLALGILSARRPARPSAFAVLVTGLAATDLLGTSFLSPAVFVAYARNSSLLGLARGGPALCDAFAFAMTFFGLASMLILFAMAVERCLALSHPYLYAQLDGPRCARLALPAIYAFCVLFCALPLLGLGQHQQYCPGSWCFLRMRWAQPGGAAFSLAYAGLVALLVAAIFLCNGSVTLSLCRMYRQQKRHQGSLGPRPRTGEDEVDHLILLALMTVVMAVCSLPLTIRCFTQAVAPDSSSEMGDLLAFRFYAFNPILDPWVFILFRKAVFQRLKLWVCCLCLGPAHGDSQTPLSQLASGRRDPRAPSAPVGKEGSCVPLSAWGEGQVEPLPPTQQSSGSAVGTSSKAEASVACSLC

`O=C(O)COc1cccc2c1CCC(CCC(=O)NN=C(c1ccccc1)c1ccccc1)C2` (centres unmarked) [3 (aa), [2-(2-(Diphenylmethylideneamino)aminocarbonylethyl)-1,2,3,4-tetrahydronaphthalen-5-yl]oxyacetic acid]: in assay [1], the IC50 came out at 6000 nM.
Still for that read-out and setting: then `O=C(O)COc1cccc2c1CCCC2CCCC(=O)N(Cc1ccccc1)Cc1ccccc1` (centres unmarked) [3 (bb), [1-(3-(N,N-Dibenzylamino)carbonylpropyl)-1,2,3,4-tetrahydronaphthalen-5-yl]oxyacetic acid], with 4100 nM.
Same read-out and setting: next, `O=C(O)COc1cccc2c1CCCC2CCCC(=O)NC(c1ccccc1)c1ccccc1` (centres unmarked) [3 (cc), [1-(3-Diphenylmethylaminocarbonylpropyl)-1,2,3,4-tetrahydronaphthalen-5-yl]oxyacetic acid]: 2700 nM.
For the compound `O=C(O)COc1cccc2c1CCCC2CCCC(=O)N(c1ccccc1)c1ccccc1` (centres unmarked) [3 (dd), [1-(3-(N,N-Diphenylamino)carbonylpropyl)-1,2,3,4-tetrahydronaphthalen-5-yl]oxyacetic acid], the IC50 in assay [1] was 1700 nM; in assay [2] it was 5100 nM.
`O=C(O)COc1cccc2c1CCCC2CC(=O)NN(c1ccccc1)c1ccccc1` (centres unmarked) [3 (j), [1-((N,N-Diphenylamino)aminocarbonyimethyl)-1,2,3,4-tetrahydronaphthalen-5-yl]oxyacetic acid]: the IC50 in assay [1] turned out to be 7600 nM.
The same measure, in the same setting: then `O=C(O)COc1cccc2c1CCCC2CCC(=O)N(Cc1ccccc1)c1ccccc1` (centres unmarked) [3 (l), [1-(2-(N-Benzyl-N-phenylamino)carbonylethyl)-1,2,3,4-tetrahydronaphthalen-5-yl]oxyacetic acid], with 2900 nM; and `O=C(O)COc1cccc2c1CCCC2CCC(=O)N(Cc1ccccc1)Cc1ccccc1` (centres unmarked) [3 (m), [1-(2-Dibenzylaminocarbonylethyl)-1,2,3,4-tetrahydronaphthalen-5-yl]oxyacetic acid], with 320 nM.
For the compound `O=C(O)COc1cccc2c1CCCC2CCC(=O)NC(c1ccccc1)c1ccccc1` (centres unmarked) [3 (o), [1-(2-Diphenylmethylaminocarbonylethyl)-1,2,3,4-tetrahydronaphthalen-5-yl]oxyacetic acid], the half-inhibitory concentration (IC50) in assay [1] stood at 210 nM; in assay [2], 400 nM.
Consider `O=C(O)COc1cccc2c1CCCC2CCC(=O)NN(c1ccccc1)c1ccccc1` (centres unmarked) [3 (p), [1-(2-(N,N-Diphenylamino)aminocarbonylethyl)-1,2,3,4-tetrahydronaphthalen-5-yl]oxyacetic acid], for which the IC50 stood at 9.4 nM in assay [1] and 110 nM in assay [2].
Take `O=C(O)COc1cccc2c1CCCC2CCC(=O)NC(Cc1ccccc1)c1ccccc1` (centres unmarked) [3 (q), [1-(2-(1,2-Diphenylethyl)aminocarbonylethyl)-1,2,3,4-tetrahydronaphthalen-5-yl]oxyacetic acid]: in assay [1], the IC50 was 6800 nM.
In the case of `O=C(O)COc1cccc2c1CCC(CC(=O)NC(c1ccccc1)c1ccccc1)C2` (centres unmarked) [3 (v), [2-(Diphenylmethylaminocarbonylmethyl)-1,2,3,4-tetrahydronaphthalen-5-yl]oxyacetic acid], the IC50 worked out at 120 nM in assay [1] and 1000 nM in assay [2].
Taken in the same sequence, the figures for `O=C(O)COc1cccc2c1CCC(CC(=O)NN(c1ccccc1)c1ccccc1)C2` (centres unmarked) [3 (w), [2-((N,N-Diphenylamino)aminocarbonylmethyl)-1,2,3,4-tetrahydronaphthalen-5-yl]oxyacetic acid] were 20 nM and 620 nM.
In the case of `O=C(O)COc1cccc2c1CCC(CCC(=O)N(Cc1ccccc1)Cc1ccccc1)C2` (centres unmarked) [3 (x), [2-(2-(N,N-Dibenzylamino)carbonylethyl)-1,2,3,4-tetrahydronaphthalen-5-yl]oxyacetic acid], the half-maximal inhibitory concentration (IC50) in assay [1] was found to be 2700 nM.
For the compound `O=C(O)COc1cccc2c1CCC(CCC(=O)NC(c1ccccc1)c1ccccc1)C2` (centres unmarked) [3 (y), [2-(2-(Diphenylmethylamino)carbonylethyl)-1,2,3,4-tetrahydronaphthalen-5-yl]oxyacetic acid], the IC50 came to 1800 nM in assay [1] and 7000 nM in assay [2].
As for `O=C(O)COc1cccc2c1CCC(CCC(=O)NN(c1ccccc1)c1ccccc1)C2` (centres unmarked) [3 (z), [2-(2-(N,N-Diphenylamino)aminocarbonylethyl)-1,2,3,4-tetrahydronaphthalen-5-yl]oxyacetic acid], the IC50 in assay [1] came to 100 nM; in assay [2], 2300 nM.
Take `COC(=O)COc1cccc2c1CCC(CN(C)C(=O)CN(c1ccccc1)c1ccccc1)C2` (centres unmarked) [4 (a), Methyl [2-((N-methyl-N-(diphenylaminomethylcarbonyl)amino)methyl)-1,2,3,4-tetrahydronaphthalen-5-yl]oxyacetate]: the IC50 in assay [1] worked out at 2300 nM.
For `CN(CC1CCc2c(cccc2OCC(=O)O)C1)C(=O)CN(Cc1ccccc1)c1ccccc1` (centres unmarked) [8 (b), [2-((N-Methyl-N-((N'-benzyl-N'-phenylamino)methylcarbonyl)amino)methyl)-1,2,3,4-tetrahydronaphthalen-5-yl]oxyacetic acid], the results for the IC50 in assay [1] and in assay [2] were 3100 nM and 8000 nM, respectively.
For `CCCN(CC1CCc2c(cccc2OCC(=O)O)C1)C(=O)CN(c1ccccc1)c1ccccc1` (centres unmarked) [8 (c), [2-((N-Propyl-N-(diphenylaminomethylcarbonyl)amino)methyl)-1,2,3,4-tetrahydronaphthalen-5-yl]oxyacetic acid], in that order: 180 nM and 2500 nM.
For the compound `CCCN(CC1CCc2c(cccc2OCC(=O)O)C1)C(=O)CN(Cc1ccccc1)c1ccccc1` (centres unmarked) [8 (d), [2-((N-Propyl-N-((N'-benzyl-N'-phenylamino)methylcarbonyl)amino)methyl)-1,2,3,4-tetrahydronaphthalen-5-yl]oxyacetic acid], the IC50 is 1800 nM in assay [1] and 5600 nM in assay [2].
Take `CCCN(CCC1CCc2c(cccc2OCC(=O)O)C1)C(=O)CN(c1ccccc1)c1ccccc1` (centres unmarked) [10 (a), [2-(2-(N-Propyl-N-(diphenylaminomethylcarbonyl)amino)ethyl)-1,2,3,4-tetrahydronaphthalen-5-yl]oxyacetic acid]: the IC50 in assay [1] is 480 nM.
On the same count and under the same terms, then `CCCN(CCC1CCc2c(cccc2OCC(=O)O)C1)C(=O)CN(Cc1ccccc1)c1ccccc1` (centres unmarked) [10 (b), [2-(2-(N-Propyl-N-((N'-benzyl-N'-phenylamino)methylcarbonyl)amino)ethyl)-1,2,3,4-tetrahydronaphthalen-5-yl]oxyacetic acid], with 8400 nM; and `CN(CCC1CCc2c(cccc2OCC(=O)O)C1)C(=O)CN(c1ccccc1)c1ccccc1` (centres unmarked) [10 (c), [2-(2-(N-Methyl-N-(diphenylaminomethylcarbonyl)amino)ethyl)-1,2,3,4-tetrahydronaphthalen-5-yl]oxyacetic acid], with 1300 nM.
Take `O=C(O)COc1cccc2c1CCCC2CCC(=O)N(c1ccccc1)c1ccccc1` (centres unmarked) [Example 3, [1-(2-Diphenylaminocarbonylethyl)-1,2,3,4-tetrahydronaphthalen-5-yl]oxyacetic acid]: the IC50 amounted to 680 nM in assay [1] and 8300 nM in assay [2].
Turning to `CN(CC1CCc2c(cccc2OCC(=O)O)C1)C(=O)NC(c1ccccc1)c1ccccc1` (centres unmarked) [Example 7, [2-(N-Methyl-N-(diphenylmethylaminocarbonyl)aminomethyl)-1,2,3,4-tetrahydronaphthalen-5-yl]oxyacetic acid], the IC50 in assay [1] amounted to 6600 nM.

By IC50 is commonly meant the concentration at which inhibition is half-maximal.
